Laboratory results taken from patent US10973896B2, “Treatment or prevention of melanoma using photochemical internalization of a melanoma antigen” (PCI Biotech AS, priority 2014, dated 2021).

How the values were obtained:
Format in all cases: in vivo, C57BL/6 mice
[1] = tested on: OVA-expressing B16-melanoma tumours; test: Histological analysis of tumour and tumour infiltrates (Example 1); settings: immune histochemistry; FIG. 3A
Protocol: C57BLJ6 mice received 500,000 OVA-expressing B16-melanoma cells intradermally as described above. Six days later, the mice were vaccinated with 10 μg OVA ±100 μg TPCS2a as described above. On day 7, the mice were treated with 4.86 J/cm2 light. On day 15, the mice were euthanized and the tumours excised and cut in two pieces, one snap frozen in liquid nitrogen and one fixed in formalin (2 days) and 60% ethanol before embedded in paraffin. The frozen tissues were sectioned and stained with anti-mouse CD8, CD4, and caspase-3 antibodies for immune histochemistry. Paraffin sections were stained with haematoxylin and eosin.

[2] = tested on: SIINFEKL-specific CD8 T cells; test: PCI immunisation of OT-I-spiked mice, SIINFEKL pentamer flow cytometry (Example 2)
Protocol: One day prior to the immunisation, spleens and lymph nodes were isolated from female OT-1 mice, and erythrocytes were removed by lysis (RBC Lysing Buffer Hybri-Max from Sigma-Aldrich) from the homogenised cell suspensions. The remaining cells were washed in PBS, filtered through 70 micron nylon strainers, and 2×10^6 OT-1 cells were administered by intravenous injection into recipient female C57BLJ6 mice; the adoptive transfer of SIINFEKL-specific CD8 T cells facilitates monitoring of the immune response by flow cytometry. One day or 8 hours later, mice were bled by tail bleeding, and the blood was collected in heparin-containing tubes for analysis of the baseline frequency of OVA-specific CD8 T cells.
Then, the mice were shaved on the abdominal area, and the vaccines, consisting of OVA or of a mixture of OVA and TPCS2a, were injected intradermally using syringes with 29G needles. The vaccines were kept light protected and used within 60 minutes of preparation. The vaccines were given in two injections of 50 μl each, on the left and right side of the abdominal mid line. OVA was tested at 10 to 100 μg per dose. The TPCS2a dose was 7.5 to 250 μg.
On day 0, prior to vaccination and on various days thereafter (e.g. day 6, 7, 8, 9, 14, 23, as indicated) mice were bled by tail bleeding and erythrocytes were removed by lysis, before analysis of antigen-specific CD8 T cells by flow cytometry. At the end of the experiment (typically 11, 12, 14 or 23 days), the mice were euthanized and the splenocytes analysed ex vivo. At various time points after the TPCS2a injection (0-48 hours), the mice were anaesthetised by intraperitoneal injection of a mixture of ketamine (25 mg/kg body weight) and xylazin (4 mg/kg) and placed on a light source (for illumination and activation of the photosensitiser TPCS2a). The light dose was 6 minutes, if not otherwise stated. The whole procedure is illustrated in the scheme of FIG. 6A. The illumination of mice using LumiSource™ is imaged in FIG. 6B.
The frequency of OVA-specific CD8 T-cells in blood was monitored by staining the cells with anti-CD8 antibody and H-2K^b/SIINFEKL ProS pentamer (Proimmune, Oxford, UK) for analysis by flow cytometry. The activation status of the cells was further analysed by testing the expression of CD44 and CD69 by flow cytometry. Intracellular staining for IFN-γ was done after overnight stimulation of splenocytes in 24-well plates with the CD8 epitope OVA257-264 (SIINFEKL) at 37 ° C. Brefeldin A was added during the last 4 hours. The cells were then washed and fixed with 4% formaldehyde in PBS for 10 min on ice. Anti-CD16/32 was added to block unspecific binding to Fc receptors. The cells were then permeabilised with 0.1% NP40 in PBS for 3 min and washed before staining with anti-IFN-γ, anti-CD8 and ant-CD44 antibodies (eBioscience or BD Pharmingen). The cells were acquired using FACSCanto (BD Biosciences, San Jose, USA) and analysed using FlowJo 8.5.2 software (Tree Star, Inc., Ashland, Oreg.).

OVA-expressing B16 cells = test: Metastatic potential of melanoma, lung melanoma spots after intravenous B16 (Example 1); settings: B16 melanoma cells given intravenously after immunisation; FIG. 4
Protocol: C57BLJ6 mice were vaccinated as above with OVA with or without TPSC2a and challenged four days later with 500,000 OVA-expressing B16 cells given by intravenous injection. On day 19, mice were euthanized and spleens and lungs were harvested. The lungs were analysed by counting melanoma spots as a measure for metastasis. Spleen cells were analysed by flow cytometry for CD8 T-cell activation as described above.

OVA: Chicken ovalbumin protein, model antigen expressed by the transfected B16 melanoma cells
infiltration of CD8 T cells into the intradermal tumour [1]: no benefit compared to no treatment | effect on SIINFEKL-specific CD8 T cells in blood as compared to untreated animals ([2]; 10 μg OVA alone, data not shown): no measurable effect | activation markers CD44, CD25 and CD69 on SIINFEKL-specific cells in blood ([2]; by day six): strong up-regulation | numbers of antigen-specific CD8 T cells ([2]; day 23, OVA alone, or OVA plus TPCS2a illuminated two hours after administration): retracted to baseline levels | frequencies of measurable SIINFEKL-specific CD8 T cells in splenocytes ([2]; day 54, 20 μg OVA with or without 200 μg TPCS2a, FIG. 14A): not different from untreated mice | frequency of SIINFEKL-specific CD8 T cells in the peripheral blood ([2]; day six, 100 μg OVA alone, or with 25 μg TPCS2a illuminated two hours after vaccination): approximately 3.5% | melanoma spots (lung metastases) on the lung, average (OVA-expressing B16 cells): approx. 50
